Assay [1] concerns estrogen-primed immature rabbits. Particulars: cited from earlier work.
Assay [2] concerns endometrium of estrogen-primed ovariectomized or climacteric women. Particulars: oral; cited from earlier work.
In assay [3] the target is T1, Cytosol Progesterone Receptor of the Estrogen-primed Immature Rabbit Uterus (Oryctolagus cuniculus, UniProt P06186).
T1 construct: cytosol progesterone receptor of the estrogen-primed immature rabbit uterus; tissue Dutchland Laboratories, Inc., Denver, Pa (animals); host or cells: uterus cytosol of estradiol-treated immature female New Zealand White rabbits
T1 sequence (P06186 1-930): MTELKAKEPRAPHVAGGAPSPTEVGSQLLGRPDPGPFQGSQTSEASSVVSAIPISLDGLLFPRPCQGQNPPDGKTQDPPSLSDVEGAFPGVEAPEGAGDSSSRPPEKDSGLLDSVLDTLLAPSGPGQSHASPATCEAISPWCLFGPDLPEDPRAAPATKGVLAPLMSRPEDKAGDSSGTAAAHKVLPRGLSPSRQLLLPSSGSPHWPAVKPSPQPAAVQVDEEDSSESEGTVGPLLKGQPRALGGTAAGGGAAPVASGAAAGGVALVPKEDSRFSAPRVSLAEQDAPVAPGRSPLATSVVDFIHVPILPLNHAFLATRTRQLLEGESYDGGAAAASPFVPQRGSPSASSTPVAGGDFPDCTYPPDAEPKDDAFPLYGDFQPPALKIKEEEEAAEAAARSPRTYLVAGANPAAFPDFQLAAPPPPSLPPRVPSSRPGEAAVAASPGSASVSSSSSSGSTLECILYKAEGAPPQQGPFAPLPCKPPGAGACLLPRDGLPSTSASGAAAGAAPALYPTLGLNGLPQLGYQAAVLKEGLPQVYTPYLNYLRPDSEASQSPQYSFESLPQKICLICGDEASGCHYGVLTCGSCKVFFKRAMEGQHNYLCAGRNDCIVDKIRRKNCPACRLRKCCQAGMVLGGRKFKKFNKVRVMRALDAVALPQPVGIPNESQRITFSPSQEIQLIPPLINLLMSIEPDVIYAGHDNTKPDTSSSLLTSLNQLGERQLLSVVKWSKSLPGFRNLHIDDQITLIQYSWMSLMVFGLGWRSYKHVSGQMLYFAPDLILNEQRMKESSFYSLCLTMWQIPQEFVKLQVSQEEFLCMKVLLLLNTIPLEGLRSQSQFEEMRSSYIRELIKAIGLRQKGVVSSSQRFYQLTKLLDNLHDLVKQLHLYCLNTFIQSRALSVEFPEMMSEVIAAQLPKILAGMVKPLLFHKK
Description: Relative binding affinity for progesterone receptor (competition with 3H-progesterone). Particulars: 16-18 hour incubation, progesterone = 100. Also on record: species or system rabbit (New Zealand White). The protocol: RBA values recorded at 0° C. after short incubation times (e.g., 2 hr) mainly reflect differences in the association rate constants of the competing ligands, whereas those measured after long incubation times (e.g., 16 to 24 hr) and/or higher temperatures predominantly are influenced by differences in the dissociation rate constants of the competing ligands. RBA's determined after short incubation times primarily reflect the association of the competitor compared to the natural hormone. Conversely, RBA's measured after long incubation times reflect the dissociation rate of the competitor compared to the natural hormone.
The assay components are combined, allowed to equilibrate, and unbound radioactivity removed by charcoal adsorption.
Animal species. Immature female New Zealand White rabbits weighing 0.8 to 1.0 kg (Dutchland Laboratories, Inc., Denver, Pa).
Pretreatment. Subcutaneous treatment with 15 μg 17β-estradiol/0.6 ml sesame oil each morning (0830 to 0930 hr) for three days. Animals sacrificed 24 hr after final injection.
Tissue. Uterus; each uterus weighed about 1.0 g and two or three uteri were pooled for each assay.
Buffer. (A) 0.01M TES, pH 7.4, 1 mM EDTA, 0.012M thioglycerol and 30% glycerol for cytosol preparation and ^3 H-steroid, unlabeled hormone and compound solutions. (B) 0.01M TES, pH 7.4, 1 mM EDTA and 0.012M thioglycerol for charcoal solution.
Homogenization. Five or six 5-second bursts with 30 second cooling periods between bursts using Brinkman Polytron Pt. 10 at 3.5 rheostat setting.
Temperature. 0°-4° C. for all steps.
Centrifugation. 45,000 rpm for 1 hr, 50 Ti rotor, Beckman L8-80 ultracentrifuge.
Incubation. 16-18 hr at 4°-6° C.
Concentations. 1×10^-10 M to 1×10^-5 M (7 concentrations).
Method. Charcoal adsorption method used to remove unbound radioactivity. Five-tenths ml of dextran-coated charcoal (0.5% Norit A and 0.05% dextran T-70) added to all tubes except total radioactivity tubes (0.5 ml buffer [B] added), tubes vortexed 3-5 sec, allowed to sit for 10 minutes and centrifuged 10 minutes at 2000 rpm in Beckman TJ-6 centrifuge at 0°-4° C.
Data Interpretation. […] The relative binding affinity (RBA) of each compound was calculated by using the following equation. [formula] where

The subject of assay [4] is uterine endometrium of estrone-primed immature rabbits. In words: Clauberg assay (progestational activity, McPhail). In kind it is in vivo, rabbit (New Zealand White). The note with it: for progestational potency relative to subcutaneous progesterone, in words: compound given orally, progesterone sc; for McPhail Index (0-4) (X ± S.D.): 0 none, 4 maximal.
Assay [5] concerns androgen target organs of castrate immature male rats. In words: Anti-androgenic activity in the castrate immature rat assay. Type of assay: in vivo. The method, then:
The oral anti-androgenic activity of 6-methyl-6-dehydro-17α-ethynylprogesterone was evaluated in the castrate immature male rat assay [Lerner et al., Proc. Soc. […] The assay is briefly described in the footnotes to Table 11.
*This assay employs castrate immature rats. For methods refer to Lerner,
L. J., A. Bianchi and A. Borman, Proc. Soc.
**Groups of rats (7/group) were given daily injections of 0.3 ml sesame
oil (control) or compound (in 0.3 ml sesame oil) for 7 days. Some groups
also concurrently received progestational compounds by the sc or oral
route of administration in order to evaluate antiandrogenic activity. One
day after the final doses, the animals were sacrificed and the androgen
target organs indicated were weighed.
***Statistically significant (p < 0.05) lower organ weights versus the
testosterone, sc, (400 μg/rat/day) group as determined by Analysis of
Variance coupled with Duncan's Multiple Range Test.

The mark [6] stands for this setting: oral 25 μg/rat daily + testosterone sc 400.
[7] abbreviates: oral 100 μg/rat daily + testosterone sc 400.
[8] abbreviates: oral 400 μg/rat daily + testosterone sc 400.

The values that follow come from patent US4512986A, “Progrestationally active steroids” (priority 1983, dated 1985).

Each structure is given as a SMILES string. “Also recorded” adds a separate entry of the source. Where two headings read alike, the source gives them in different places.

Take `C#C[C@]1(O)CC[C@H]2[C@@H]3CCC4=C(CCC(=O)C4)[C@H]3CC[C@@]21C` [Norethynodrel]: the “Threshold or effective dose, Clauberg Assay” value in assay [1] (oral) and in assay [1] (s.c. (i.m.)) was 0.3 mg/animal throughout. For the same compound, the “Threshold or effective dose, Kaufman Assay” value in assay [2] is 150-200 mg/cycle.
Turning to `C#C[C@]1(C(C)=O)CC[C@H]2[C@@H]3C=C(C)C4=CC(=O)CC[C@]4(C)[C@H]3CC[C@@]21C` [17α-Ethynyl-6-methylpregna-4,6-diene-3,20-dione], the RBA in assay [3] (Assay 6) was 104%. Further, the “potency relative to levonorgestrel, in words” value in assay [4] (both given orally) is recorded as “equipotent with levonorgestrel”. For the same compound, the “progestational potency relative to subcutaneous progesterone, in words” value in assay [4] is recorded as “more than eight times as potent as progesterone administered subcutaneously”. In addition, the “Uterine Weight (X ± S.D.)” value in assay [4] (oral, 5 μg/rabbit daily) amounted to 0.99 ± 0.34 g; in assay [4] (oral, 10 μg/rabbit daily), 1.11 ± 0.23 g; in assay [4] (oral, 25 μg/rabbit daily) it was 2.93 ± 1.33 g; in assay [4] (oral, 50 μg/rabbit daily), 3.59 ± 0.43 g. Besides, the “McPhail Index (0-4) (X ± S.D.)” value in assay [4] (oral, 5 μg/rabbit daily) amounted to 0.00 ± 0.0; in assay [4] (oral, 10 μg/rabbit daily), 0.17 ± 0.12; in assay [4] (oral, 25 μg/rabbit daily), 3.33 ± 0.62; in assay [4] (oral, 50 μg/rabbit daily) it was 4.00 ± 0.00. The “Levator Ani weight (X ± S.D.)” value in assay [5] (setting [6]) came out at 63 ± 13 mg; in assay [5] (setting [7]), 68 ± 13 mg; in assay [5] (setting [8]) it was 66 ± 9 mg. In addition, the “Seminal Vesicles weight (X ± S.D.)” value in assay [5] (setting [6]) is 141 ± 43 mg; in assay [5] (setting [7]) it was 141 ± 9 mg; in assay [5] (setting [8]) it was 129 ± 37 mg. Besides, the results for the “Ventral Prostate weight (X ± S.D.)” value in assay [5] (setting [6]), in assay [5] (setting [7]) and in assay [5] (setting [8]) were 61 ± 13 mg, 63 ± 25 mg and 43 ± 12 mg, respectively. The “anti-androgenic activity, in words” value in assay [5] (with testosterone sc 400 μg/rat/day, doses up to 400 μg/rat/day (progestagen oral; progesterone sc), listed as 6-methyl-6-dehydro-17α-ethynylprogesterone) was “significant depression of ventral prostate weight; also recorded: Seminal vesicle weight also was depressed at the same dose level, but the decrease was not statistically significant”.
In the case of `C#C[C@]1(O)CC[C@H]2[C@@H]3CCC4=CC(=O)CC[C@@H]4[C@H]3CC[C@@]21C` [Norethisterone], the “Threshold or effective dose, Clauberg Assay” value in assay [1] (s.c. (i.m.)) is 0.1 mg/animal. Besides, the “Threshold or effective dose, Kaufman Assay” value in assay [2] is 100-150 mg/cycle.
Take `C#C[C@]1(O)CC[C@H]2[C@@H]3CCC4=CC(=O)CC[C@@H]4[C@H]3CC[C@@]21CC` [Levonorgestrel, reference compound]: the “Threshold or effective dose, Clauberg Assay” value is 0.03 mg/animal in assay [1] (oral) and 0.01-0.03 mg/animal in assay [1] (s.c. (i.m.)). Moreover, the RBA in assay [3] (Assay 1, 5α-dihydro-17α-ethynyl: lot 1) was 111%. Besides, the “Uterine Weight (X ± S.D.)” value came out at 1.30 ± 0.49 g in assay [4] (oral, 5 μg/rabbit daily); 0.86 ± 0.04 g in assay [4] (oral, 10 μg/rabbit daily); 2.59 ± 0.81 g in assay [4] (oral, 25 μg/rabbit daily); 1.95 ± 0.41 g in assay [4] (oral, 50 μg/rabbit daily); 3.57 ± 1.08 g in assay [4] (oral, 100 μg/rabbit daily); 2.80 ± 0.14 g in assay [4] (oral, 200 μg/rabbit daily). Also, the “Uterine Weight (X ± S.D.)” value in assay [4] (oral, 400 μg/rabbit daily) came out at 2.67 ± 0.80 g. For the same compound, the “McPhail Index (0-4) (X ± S.D.)” value in assay [4] (oral, 5 μg/rabbit daily) came to 0.08 ± 0.12; in assay [4] (oral, 10 μg/rabbit daily), 0.04 ± 0.06; in assay [4] (oral, 25 μg/rabbit daily), 3.71 ± 0.16; in assay [4] (oral, 50 μg/rabbit daily), 2.92 ± 0.42; in assay [4] (oral, 100 μg/rabbit daily), 3.90 ± 0.12; in assay [4] (oral, 200 μg/rabbit daily) it was 4.00 ± 0.00. Besides, the “McPhail Index (0-4) (X ± S.D.)” value in assay [4] (oral, 400 μg/rabbit daily) is reported as 3.70 ± 0.47. For the same compound, the “Threshold or effective dose, Kaufman Assay” value in assay [2] is given as 6 mg/cycle.
Regarding `C#C[C@]1(C(C)=O)CC[C@H]2[C@@H]3C[C@H](C)C4=CC(=O)CC[C@]4(C)[C@H]3CC[C@@]21C` [6α-Methyl-17α-ethynylprogesterone, 17α-Ethynyl-6α-methylprogesterone], the values for the RBA in assay [3] (Assay 4), in assay [3] (Assay 5) and in assay [3] (Assay 6) were 63%, 67% and 91%, respectively. In assay [4] (both given orally), the “potency relative to 6α-methyl-17-acetoxyprogesterone (Provera), in words” value is on record as “at least as twice as potent”. The “progestational potency relative to subcutaneous progesterone, in words” value in assay [4] is “four times more potent than progesterone administered subcutaneously”. For the same compound, the “Uterine Weight (X ± S.D.)” value is 1.28 ± 0.37 g in assay [4] (oral, 10 μg/rabbit daily); 2.43 ± 0.41 g in assay [4] (oral, 25 μg/rabbit daily); 3.21 ± 0.79 g in assay [4] (oral, 50 μg/rabbit daily); 3.28 ± 0.35 g in assay [4] (oral, 100 μg/rabbit daily); 1.31 ± 0.20 g in assay [4] (sc, 2.5 μg/rabbit daily); 1.84 ± 0.48 g in assay [4] (sc, 5 μg/rabbit daily). For the same compound, the “Uterine Weight (X ± S.D.)” value in assay [4] (sc, 10 μg/rabbit daily) came out at 3.68 ± 0.31 g; in assay [4] (sc, 20 μg/rabbit daily), 3.69 ± 0.62 g. Also, the “McPhail Index (0-4) (X ± S.D.)” value turned out to be 0.67 ± 0.42 in assay [4] (oral, 10 μg/rabbit daily); 2.67 ± 1.00 in assay [4] (oral, 25 μg/rabbit daily); 3.92 ± 0.12 in assay [4] (oral, 50 μg/rabbit daily); 4.00 ± 0.00 in assay [4] (oral, 100 μg/rabbit daily); 0.21 ± 0.06 in assay [4] (sc, 2.5 μg/rabbit daily); 1.29 ± 1.40 in assay [4] (sc, 5 μg/rabbit daily). In addition, the “McPhail Index (0-4) (X ± S.D.)” value in assay [4] (sc, 10 μg/rabbit daily) came out at 3.92 ± 0.12; in assay [4] (sc, 20 μg/rabbit daily) it was 4.00 ± 0.00.
